Values quoted from earlier work, collected in paper PMC10036820, “In vivo evaluation of integrin αvβ6-targeting peptide in NSCLC and brain metastasis” (Frontiers in Oncology, 2023).

Assays:
integrin αvβ6 = system: integrin αvβ6; design: method as in PMID 29674419; settings: comparison in words; ref [16]
[1] = system: HNSCC primary tumor and lymph node metastases; design: method as in PMID 29674419; settings: PET/CT, patient with HNSCC; ref [16]

GRGDLGRL [SFLAP3, SFTI-based peptide containing latency-associated peptide (GRGDLGRL)]
affinity to integrin αvβ6 relative to SFITGv6 (integrin αvβ6): better affinity | SUVmax, lymph node metastases [1]: 4.1 | SUVmax, primary tumor [1]: 5.1
